Earlier results in patent US8821904B2, “Topical composition and use thereof for the prophylaxis and the treatment of defects connected to inflammatory dermopathies” (Skinius S.R.L., priority 2010, dated 2014).

System: seborrhoeic eczema
Conditions: topically applied, after four weeks of treatment

SMILES: CC(=O)N1CCN(c2ccc(OCC3COC(Cn4ccnc4)(c4ccc(Cl)cc4Cl)O3)cc2)CC1 (stereo not shown) [ketoconazole]
- Improvement of seborrhoeic eczema, percentage of the cases: 75%
